Laboratory results from ChEMBL document CHEMBL1153301, “Identification and SAR of novel diaminopyrimidines. Part 1: The discovery of RO-4, a dual P2X(3)/P2X(2/3) antagonist for the treatment of pain” (Bioorg Med Chem Lett, 2009).

Assays:
P2X purinoceptor 3 = biological target: T1, P2X purinoceptor 3 (Rattus norvegicus, UniProt P49654); experiment: Antagonist activity at rat recombinant P2X3 receptor expressed in CHO cells by FLIPR assay
T1 sequence (P49654 whole entry): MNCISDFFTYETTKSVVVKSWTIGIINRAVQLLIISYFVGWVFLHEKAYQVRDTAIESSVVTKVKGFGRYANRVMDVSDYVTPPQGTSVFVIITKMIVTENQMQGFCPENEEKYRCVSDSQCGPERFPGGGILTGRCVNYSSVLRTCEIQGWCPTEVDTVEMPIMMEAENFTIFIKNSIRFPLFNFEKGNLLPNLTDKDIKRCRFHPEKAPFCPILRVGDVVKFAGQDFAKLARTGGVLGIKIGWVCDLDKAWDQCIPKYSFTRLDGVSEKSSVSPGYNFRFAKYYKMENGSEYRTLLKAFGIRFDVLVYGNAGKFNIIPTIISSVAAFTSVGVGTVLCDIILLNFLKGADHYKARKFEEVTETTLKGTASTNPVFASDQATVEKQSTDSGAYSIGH

[1] = biological target: T2, P2X2/P2X3 heterotrimeric receptor (Homo sapiens, UniProt P56373+Q9UBL9); experiment: Antagonist activity at human recombinant P2X2/3 receptor expressed in human 1321N1 cells by FLIPR assay; format: functional, cell-based
T2 sequence (Q9UBL9 whole entry): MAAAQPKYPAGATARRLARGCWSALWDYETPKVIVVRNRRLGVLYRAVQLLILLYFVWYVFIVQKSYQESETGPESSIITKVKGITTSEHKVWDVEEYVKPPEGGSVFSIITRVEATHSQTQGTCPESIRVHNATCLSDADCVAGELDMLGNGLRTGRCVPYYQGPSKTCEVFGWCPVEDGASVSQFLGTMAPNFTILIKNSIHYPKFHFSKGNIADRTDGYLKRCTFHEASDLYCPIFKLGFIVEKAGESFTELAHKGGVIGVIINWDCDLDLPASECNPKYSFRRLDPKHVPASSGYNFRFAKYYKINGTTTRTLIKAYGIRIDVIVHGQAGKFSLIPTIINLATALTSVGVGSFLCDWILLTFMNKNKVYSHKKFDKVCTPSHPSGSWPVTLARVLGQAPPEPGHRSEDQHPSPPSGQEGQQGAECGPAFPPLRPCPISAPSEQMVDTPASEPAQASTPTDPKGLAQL
T2 sequence (P56373 whole entry): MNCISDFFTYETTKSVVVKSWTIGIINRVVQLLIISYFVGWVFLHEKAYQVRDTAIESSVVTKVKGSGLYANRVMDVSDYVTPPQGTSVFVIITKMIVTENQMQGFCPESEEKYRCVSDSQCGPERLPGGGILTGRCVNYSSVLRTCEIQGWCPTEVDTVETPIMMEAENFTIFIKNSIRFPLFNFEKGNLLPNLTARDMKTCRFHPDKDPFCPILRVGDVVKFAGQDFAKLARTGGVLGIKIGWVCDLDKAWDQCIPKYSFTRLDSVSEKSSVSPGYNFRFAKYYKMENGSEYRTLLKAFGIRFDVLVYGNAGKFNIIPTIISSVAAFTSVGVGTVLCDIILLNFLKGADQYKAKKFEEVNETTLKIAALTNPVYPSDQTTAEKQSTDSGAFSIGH

P2X purinoceptor 1 = biological target: T3, P2X purinoceptor 1 (Homo sapiens, UniProt P51575); experiment: Inhibition of P2X1 receptor
T3 sequence (P51575 whole entry): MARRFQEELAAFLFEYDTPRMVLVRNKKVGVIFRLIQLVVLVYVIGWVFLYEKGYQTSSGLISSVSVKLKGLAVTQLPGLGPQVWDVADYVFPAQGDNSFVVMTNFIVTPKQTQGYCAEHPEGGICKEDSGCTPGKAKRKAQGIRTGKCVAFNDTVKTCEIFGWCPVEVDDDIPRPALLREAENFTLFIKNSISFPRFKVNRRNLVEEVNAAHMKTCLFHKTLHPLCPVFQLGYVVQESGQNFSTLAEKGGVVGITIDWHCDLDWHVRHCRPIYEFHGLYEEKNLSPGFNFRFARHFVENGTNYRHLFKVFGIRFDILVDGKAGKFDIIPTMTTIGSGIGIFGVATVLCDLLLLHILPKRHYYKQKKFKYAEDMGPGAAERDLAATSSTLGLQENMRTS

P2X purinoceptor 2 = biological target: T4, P2X purinoceptor 2 (Homo sapiens, UniProt Q9UBL9); experiment: Inhibition of P2X2 receptor
T4 sequence (Q9UBL9 whole entry): T2 sequence (Q9UBL9 whole entry)

P2X purinoceptor 4 = biological target: T5, P2X purinoceptor 4 (Homo sapiens, UniProt Q99571); experiment: Inhibition of P2X4 receptor
T5 sequence (Q99571 whole entry): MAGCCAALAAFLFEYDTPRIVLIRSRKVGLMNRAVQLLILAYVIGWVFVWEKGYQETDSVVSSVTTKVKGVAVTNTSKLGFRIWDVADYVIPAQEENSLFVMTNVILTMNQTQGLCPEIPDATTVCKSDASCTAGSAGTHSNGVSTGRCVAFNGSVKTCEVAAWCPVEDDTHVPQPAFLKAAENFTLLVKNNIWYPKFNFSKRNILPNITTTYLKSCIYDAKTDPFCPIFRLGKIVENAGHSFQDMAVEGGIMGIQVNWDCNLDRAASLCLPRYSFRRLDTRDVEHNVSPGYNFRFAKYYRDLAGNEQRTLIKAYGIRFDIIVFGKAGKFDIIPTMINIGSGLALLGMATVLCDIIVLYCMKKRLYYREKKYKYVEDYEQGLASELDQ

P2X purinoceptor 5 = P2X purinoceptor 5 (Homo sapiens, UniProt Q93086); experiment: Inhibition of P2X5 receptor
P2X purinoceptor 7 = biological target: T6, P2X purinoceptor 7 (Homo sapiens, UniProt Q99572); experiment: Inhibition of P2X7 receptor
T6 sequence (Q99572 whole entry): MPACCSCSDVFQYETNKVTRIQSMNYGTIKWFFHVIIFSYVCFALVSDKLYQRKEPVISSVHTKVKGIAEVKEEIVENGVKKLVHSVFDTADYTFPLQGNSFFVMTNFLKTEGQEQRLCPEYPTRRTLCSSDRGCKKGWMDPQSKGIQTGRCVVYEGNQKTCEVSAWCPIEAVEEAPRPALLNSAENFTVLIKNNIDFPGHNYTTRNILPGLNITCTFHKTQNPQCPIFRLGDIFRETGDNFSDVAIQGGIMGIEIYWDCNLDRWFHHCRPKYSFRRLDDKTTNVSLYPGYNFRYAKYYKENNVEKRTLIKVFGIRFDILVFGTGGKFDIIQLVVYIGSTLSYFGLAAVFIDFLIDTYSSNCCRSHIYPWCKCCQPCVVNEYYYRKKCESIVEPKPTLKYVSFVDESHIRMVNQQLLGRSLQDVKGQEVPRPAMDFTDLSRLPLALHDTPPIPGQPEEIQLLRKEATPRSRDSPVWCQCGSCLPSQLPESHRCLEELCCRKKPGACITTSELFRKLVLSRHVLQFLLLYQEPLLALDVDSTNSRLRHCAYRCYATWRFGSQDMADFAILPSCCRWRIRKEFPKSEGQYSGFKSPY

[2] = Inhibition of ML1 receptor
Histamine H2 receptor = Histamine H2 receptor (Homo sapiens, UniProt P25021); experiment: Inhibition of histamine H2 receptor
[3] = biological target: 5-hydroxytryptamine receptor 2A (Homo sapiens, UniProt P28223); experiment: Inhibition of 5HT2A receptor
[4] = biological target: T7, 5-hydroxytryptamine receptor 3A (Homo sapiens, UniProt P46098); experiment: Inhibition of 5HT3 receptor
T7 sequence (P46098 whole entry): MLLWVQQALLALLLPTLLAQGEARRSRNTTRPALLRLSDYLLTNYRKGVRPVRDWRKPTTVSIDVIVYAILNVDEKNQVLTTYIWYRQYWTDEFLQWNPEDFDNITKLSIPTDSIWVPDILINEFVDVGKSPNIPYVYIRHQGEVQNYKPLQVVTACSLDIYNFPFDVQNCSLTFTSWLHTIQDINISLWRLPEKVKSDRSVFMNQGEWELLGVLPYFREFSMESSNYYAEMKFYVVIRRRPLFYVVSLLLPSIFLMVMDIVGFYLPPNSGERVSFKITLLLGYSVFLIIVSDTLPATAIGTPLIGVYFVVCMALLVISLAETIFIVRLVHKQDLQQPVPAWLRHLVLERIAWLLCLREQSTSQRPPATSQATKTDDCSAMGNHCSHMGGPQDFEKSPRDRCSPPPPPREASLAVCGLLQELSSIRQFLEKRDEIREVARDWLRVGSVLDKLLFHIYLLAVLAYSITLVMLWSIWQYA

[5] = biological target: 5-hydroxytryptamine receptor 6 (Homo sapiens, UniProt P50406); experiment: Inhibition of 5HT6 receptor
[6] = Clearance in dog; format: ADME, organism-based, Canis lupus familiaris; details: in vivo
Caco-2 = experiment: Ratio of permeability from basolateral to apical side over apical to basolateral side in human Caco-2 cells; format: ADME, cell-based

Sequence of P2X purinoceptor 5 (Q93086 whole entry): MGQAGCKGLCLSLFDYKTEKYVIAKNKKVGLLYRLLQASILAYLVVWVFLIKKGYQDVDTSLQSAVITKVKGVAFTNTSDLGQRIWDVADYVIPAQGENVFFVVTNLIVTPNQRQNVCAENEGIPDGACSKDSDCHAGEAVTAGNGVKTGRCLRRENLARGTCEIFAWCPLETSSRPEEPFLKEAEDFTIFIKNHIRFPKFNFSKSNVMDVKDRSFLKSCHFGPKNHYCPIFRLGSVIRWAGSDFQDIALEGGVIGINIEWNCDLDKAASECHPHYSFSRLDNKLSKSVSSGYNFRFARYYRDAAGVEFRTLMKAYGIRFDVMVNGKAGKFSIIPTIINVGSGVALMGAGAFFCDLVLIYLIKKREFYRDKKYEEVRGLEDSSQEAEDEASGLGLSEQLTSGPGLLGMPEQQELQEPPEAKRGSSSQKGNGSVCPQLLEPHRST
Sequence of Histamine H2 receptor (P25021 whole entry): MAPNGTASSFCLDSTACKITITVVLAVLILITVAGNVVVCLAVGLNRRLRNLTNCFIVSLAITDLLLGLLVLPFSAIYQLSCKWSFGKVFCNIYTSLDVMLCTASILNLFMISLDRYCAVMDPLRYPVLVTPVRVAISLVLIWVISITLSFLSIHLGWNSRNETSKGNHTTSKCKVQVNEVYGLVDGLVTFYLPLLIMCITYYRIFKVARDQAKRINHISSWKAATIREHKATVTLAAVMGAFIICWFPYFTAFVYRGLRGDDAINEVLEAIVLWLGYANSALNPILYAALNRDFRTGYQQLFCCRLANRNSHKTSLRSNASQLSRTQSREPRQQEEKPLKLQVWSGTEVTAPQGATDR
Sequence of 5-hydroxytryptamine receptor 6 (P50406 whole entry): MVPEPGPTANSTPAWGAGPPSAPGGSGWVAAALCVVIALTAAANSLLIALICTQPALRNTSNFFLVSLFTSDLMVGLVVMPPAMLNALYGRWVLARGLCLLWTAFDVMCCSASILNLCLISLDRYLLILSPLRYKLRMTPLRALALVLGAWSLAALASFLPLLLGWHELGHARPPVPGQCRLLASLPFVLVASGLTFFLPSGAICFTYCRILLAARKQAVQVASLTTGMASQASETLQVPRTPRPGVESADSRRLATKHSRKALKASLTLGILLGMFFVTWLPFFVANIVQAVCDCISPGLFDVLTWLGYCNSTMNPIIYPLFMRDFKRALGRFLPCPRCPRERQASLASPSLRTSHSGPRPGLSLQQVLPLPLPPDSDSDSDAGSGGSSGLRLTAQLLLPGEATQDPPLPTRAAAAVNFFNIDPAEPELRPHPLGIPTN
Sequence of 5-hydroxytryptamine receptor 2A (P28223 whole entry): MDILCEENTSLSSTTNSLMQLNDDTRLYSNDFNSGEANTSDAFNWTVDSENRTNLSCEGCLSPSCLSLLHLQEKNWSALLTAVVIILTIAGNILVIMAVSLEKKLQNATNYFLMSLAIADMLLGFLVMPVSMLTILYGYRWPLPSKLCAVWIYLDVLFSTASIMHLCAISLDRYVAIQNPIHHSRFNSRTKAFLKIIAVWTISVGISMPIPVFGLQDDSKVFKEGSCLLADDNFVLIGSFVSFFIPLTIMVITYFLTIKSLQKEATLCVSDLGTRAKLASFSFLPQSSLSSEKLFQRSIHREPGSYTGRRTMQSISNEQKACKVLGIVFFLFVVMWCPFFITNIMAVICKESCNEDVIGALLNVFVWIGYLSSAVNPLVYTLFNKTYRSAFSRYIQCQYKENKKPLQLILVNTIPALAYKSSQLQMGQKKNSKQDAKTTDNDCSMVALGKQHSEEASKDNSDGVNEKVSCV

IC50 (P2X purinoceptor 3) | IC50 [1] | SMILES | further results
0.158 µM | 0.316 µM | COc1cc(C(C)C)c(Oc2cnc(N)nc2N)cc1C(=O)O | –
– | > 10 µM | COc1cc(Cc2cnc(N)nc2N)c(C(C)(C)C)cc1OC | –
0.0794 µM | 0.316 µM | COc1cc(Oc2cnc(N)nc2N)c(C(C)C)cc1Br | –
2.51 µM | 7.94 µM | COc1cc(Oc2cnc(N)nc2N)c(C(C)C)cc1-c1ccc(F)cc1 | –
0.1 µM | 0.398 µM | COc1cc(C(C)C)c(Oc2cnc(N)nc2N)cc1C | –
0.158 µM | 2 µM | CCc1cc(OC)c(OC)cc1Oc1cnc(N)nc1N | –
– | 0.0794 µM | COc1cc(C(C)C)c(Oc2cnc(N)nc2N)cc1I | pIC50 (P2X purinoceptor 3; cho): 8; IC50 (P2X purinoceptor 1): > 10 µM; IC50 (P2X purinoceptor 2): > 10 µM; IC50 (P2X purinoceptor 4): > 10 µM; IC50 (P2X purinoceptor 5): > 10 µM; IC50 (P2X purinoceptor 7): > 10 µM; Ki [2]: 1 µM; Ki (Histamine H2 receptor): 1 µM; Ki [3]: 1 µM; Ki [4]: 1 µM; Ki [5]: 1 µM; clearance [6]: 13 mL/min/kg; Ratio (Caco-2): 1
– | > 10 µM | CCc1cc(OC)c(OC)cc1Cc1cnc(N)nc1N | –
0.158 µM | 0.631 µM | COc1cc(C(C)C)c(Oc2cnc(N)nc2N)cc1-c1ncc[nH]1 | –
0.02 µM | 0.0794 µM | COc1cc(C(C)C)c(Oc2cnc(N)nc2N)cc1Br | –
1 µM | 2.51 µM | COc1cc(C(C)C)c(Oc2cnc(N)nc2N)cc1-c1ccccc1 | –
– | 2 µM | COc1cc(Cc2cnc(N)nc2N)c(C(C)C)cc1OC | –
0.0398 µM | 0.316 µM | COc1cc(C(C)C)c(Oc2cnc(N)nc2N)cc1-c1nnn[nH]1 | –
1.26 µM | > 10 µM | COc1cc(Cc2cnc(N)nc2N)c(C2CC2)cc1OC | –
3.16 µM | 1.58 µM | COc1cc(C(C)C)c(Oc2cnc(N)nc2N)cc1F | –
0.501 µM | 2 µM | COc1cc(C(C)C)c(Oc2cnc(N)nc2N)cc1C(C)C | –
– | 0.0126 µM | C#Cc1cc(Oc2cnc(N)nc2N)c(C(C)C)cc1OC | –
0.0501 µM | 0.158 µM | CCc1cc(Oc2cnc(N)nc2N)c(C(C)C)cc1OC | –
0.1 µM | 1.58 µM | COc1cc(C(C)C)c(Oc2cnc(N)nc2N)cc1C(N)=O | –
0.0398 µM | 0.398 µM | COc1cc(Oc2cnc(N)nc2N)c(C(C)C)cc1I | –
– | > 10 µM | CCCc1cc(OC)c(OC)cc1Cc1cnc(N)nc1N | –
0.0251 µM | – | COc1cc(Oc2cnc(N)nc2N)c(C(C)C)cc1OC | –
0.631 µM | 2.51 µM | COc1cc(C(C)C)c(Oc2cnc(N)nc2N)cc1C#N | –
3.98 µM | 2 µM | CC(C)c1ccccc1Oc1cnc(N)nc1N | –
0.398 µM | 0.158 µM | COc1ccc(C(C)C)c(Oc2cnc(N)nc2N)c1 | –
1.58 µM | 0.398 µM | COc1ccc(Oc2cnc(N)nc2N)c(C(C)C)c1 | –
0.1 µM | 1 µM | COc1cc(C(C)C)c(Oc2cnc(N)nc2N)cc1S(C)(=O)=O | –

SMILES | IC50 (P2X purinoceptor 3) | IC50 [1] | further results
COc1cc(C(=O)c2cnc(N)nc2N)c(C(C)C)cc1OC | > 10 µM | > 10 µM | –
COc1cc(Cc2cnc(N)nc2N)c(CC(C)C)cc1OC | > 10 µM | 10 µM | –
COc1cc(Cc2cnc(N)nc2N)c(C2CCC2)cc1OC | > 10 µM | > 10 µM | –
COc1cc(C(C)C)c(C(O)c2cnc(N)nc2N)cc1OC (stereo not drawn) | > 10 µM | > 10 µM | –
COc1cc(C(C)C)c(Oc2cnc(N)nc2N)cc1C1=NCCN1 | > 10 µM | > 10 µM | –
CCc1cc(OC)c(OC)cc1CCc1cnc(N)nc1N | > 10 µM | > 10 µM | –
COc1cc(Oc2cnc(N)nc2N)c(C(C)C)cc1C#N | > 10 µM | > 10 µM | –
COc1cc(C(C)C)c(Oc2cnc(N)nc2N)cc1Cl | 0.0251 µM | 0.1 µM | –
COc1cc(C)c(Cc2cnc(N)nc2N)cc1OC [ORMETOPRIM] | > 10 µM | > 10 µM | –
